Where no end group is shown, it is not given here.
Key:
[1] = system: surface HLA*A02:01 on engineered K562 cells (K+); assay: Flow cytometry peptide exchange / antigen presentation assay on K562 cells; type: cell-based, human; conditions: 1 uM AF555 N-terminal tagged peptide, 5 uM GL dipeptide, 1 uM brefeldin A, 3 hours, N=4
Experimental: (K+) that only expresses the HLA*A02:01 allele (see Methods).
To validate ExoGAN at the cellular level, we used engineered K562[53] cells (K+) that only express surface HLA*A02:01. Native K562 cells (K−) and K+ cells were grown in complete 1640-RPMI (Gibco) media and harvested at 1 x 10^6 cells. Based on the method reported by Saini et al.[70], cells were incubated with 1 uM AF555 N-terminal tagged peptides with or without the 5 uM GL dipeptide in 1 uM brefeldin A for 3 hours in a 96 well plate. Total volume was 200 uL per well. Cells were washed 3x and subjected to flow cytometry for HLA*A02:01 affinity.

[2] = system: DMF5 TCR on J+ cells; assay: J+ cell immunostimulation by peptide-engineered APC-EVs; type: cell-based, human; conditions: 2x10^9 particles, 24 hours
Experimental: We designed EVs derived from K+ cells with ExoGAN-designed peptides to precisely activate J+ cells expressing the melanoma TCR, DMF5.
100 uL of the isolate solution was combined with a 100 uL mastermix solution containing 5 uM GL dipeptide and 1 uM peptide. The 200 uL solution was incubated on a revolver at 4°c for 1.5 hours, following purification by ultrafiltration using a 10k MWCO column into a 30 uL solution. 10 uL was used for zeta potential, nano flow cytometry to assess peptides binding onto HLA-A*02:01 and 10 uL was used to assess CD69 expression and IL-2 secretion from J+ cells. To measure J+ functionality, 2x10^5 J+ cells in 190 uL were added to a 96 round bottom well plate, followed by adding the 10 uL isolate solution. 24 hours later, CD69 was evaluated with flow cytometry

[3] = target: HLA-A*02:01 on engineered K562 cells (K+) and on extracellular vesicles isolated from them (human); assay: nano flow cytometry on extracellular vesicles; EVs isolated from K+ cells incubated with 1 uM AF647-tagged peptide and 5 uM GL dipeptide, ultrafiltered (10k MWCO), stained with an AF488 HLA-A*02:01 antibody; NanoFCM

CLICMDMVV [Exo_4]
peptide presentation on K+ cells (AF555 median fluorescent intensity) [1]: most potent peptide binders

FLIHSRNHD [Exo_1]
CD69 median fluorescent intensity of J+ cells ([2]; 2x10^5 J+ cells, flow cytometry, N=4): outperformed MART-1
IL-2 secretion of J+ cells ([2]; J+ cells, ELISA, Dunnett's test corrected one-way ANOVA, p <0.05): significantly more

FLIDLAFLI [IEDB, reference compound]
peptide presentation on K+ cells (AF555 median fluorescent intensity) [1]: most potent peptide binders

HHMNMSMSK (also: AF647-tagged, position not given here) [Exo_2, AF647-tagged]
percent peptide binding [3]: 100%

AAICTLLYD (also: AF647-tagged, position not given here) [Exo_3, AF647-tagged]
percent peptide binding [3]: 100%

CLICMDMVV (cysteine pairing not given here; also: AF647-tagged, position not given here) [Exo_4, AF647-tagged]
percent peptide binding [3]: 100%

FLIHSRNHD (also: AF647-tagged, position not given here) [Exo_1, AF647-tagged]
percent peptide binding [3]: 100%

Source: paper PMC12270203, “The ExoGAN generative AI framework enables extracellular vesicle-based immunotherapy” (Research Square, 2025)
